Data set [1] can be described thus: Fluorescence lifetime by Time-Correlated Single Photon Counting; fluorescence intensity. The class given is physicochemical. On the procedure: The fluorescence spectra of H2DBP ligand and DBP-UiO NMOF were taken on a spectrofluorophotometer (RF-5301PC, Shimadzu Corporation, Kyoto, Japan).
Time-domain lifetimes were measured on a ChronosBH lifetime fluorimeter (ISS, Inc., Champaign, Ill., United States of America) using Time-Correlated Single Photon Counting (TCSPC) methods. The fluorimeter contained Becker-Hickl SPC-130 detection electronics and an HPM-100-40 Hybrid PMT detector. Tunable picosecond pulsed excitation was provided by a Fianium SC400-2 supercontiuum laser source with integrated pulse picker and AOTF. Emission wavelengths were selected with bandpass filters (Semrock and Chroma). The Instrument Response Function (IRF) was measured to be approximately 120 ps FWHM in a 1% scattering solution of Ludox LS colloidal silica. Lifetimes were fit via a forward convolution method in the Vinci control and analysis software.
Fluorescence spectra of suspensions of Hf-MOF (0.04 mM of L ligand) in water, DMF, and THF were taken with an excitation wavelength of 368.8 nm. […] Fluorescence lifetimes of Hf-MOF, Zr-MOF, and H2L suspensions in water were also examined.

The subject of another data set is HT29 cells. Particulars: 8.5 μM dose, 100 J/cm^2 light dose; cited from earlier work.

In turn, `O=C(O)c1ccc(-c2c3ccccc3c(-c3ccc(C(=O)O)cc3)c3ccccc23)cc1` [H2L, 9,10-anthacenyl bis(benzoic acid)] registered an excited state lifetime in data set [1] (DMF solution or suspension) of 5.34 ns. This compound had a weighted fluorescence lifetime in data set [1] (suspensions in water) of 2.0 ns. Consider PHOTOFRIN®, for which the PDT efficacy entry in the data set with HT29 cells was “modest PDT efficacy”.

Values taken from patent publication US10806694B2, “Nanoparticles for photodynamic therapy, X-ray induced photodynamic therapy, radiotherapy, radiodynamic therapy, chemotherapy, immunotherapy, and any combination thereof” (The University of Chicago, priority 2014, dated 2020).
